Paper PMC5829162, “Rational Design, Synthesis and Biological Evaluation of Pyrimidine-4,6-diamine derivatives as Type-II inhibitors of FLT3 Selective Against c-KIT” (Scientific Reports, 2018)

Molecular target: T1, FLT3 kinase (Homo sapiens, UniProt P36888)
T1 construct: purchased Invitrogen
T1 sequence (P36888 27-993): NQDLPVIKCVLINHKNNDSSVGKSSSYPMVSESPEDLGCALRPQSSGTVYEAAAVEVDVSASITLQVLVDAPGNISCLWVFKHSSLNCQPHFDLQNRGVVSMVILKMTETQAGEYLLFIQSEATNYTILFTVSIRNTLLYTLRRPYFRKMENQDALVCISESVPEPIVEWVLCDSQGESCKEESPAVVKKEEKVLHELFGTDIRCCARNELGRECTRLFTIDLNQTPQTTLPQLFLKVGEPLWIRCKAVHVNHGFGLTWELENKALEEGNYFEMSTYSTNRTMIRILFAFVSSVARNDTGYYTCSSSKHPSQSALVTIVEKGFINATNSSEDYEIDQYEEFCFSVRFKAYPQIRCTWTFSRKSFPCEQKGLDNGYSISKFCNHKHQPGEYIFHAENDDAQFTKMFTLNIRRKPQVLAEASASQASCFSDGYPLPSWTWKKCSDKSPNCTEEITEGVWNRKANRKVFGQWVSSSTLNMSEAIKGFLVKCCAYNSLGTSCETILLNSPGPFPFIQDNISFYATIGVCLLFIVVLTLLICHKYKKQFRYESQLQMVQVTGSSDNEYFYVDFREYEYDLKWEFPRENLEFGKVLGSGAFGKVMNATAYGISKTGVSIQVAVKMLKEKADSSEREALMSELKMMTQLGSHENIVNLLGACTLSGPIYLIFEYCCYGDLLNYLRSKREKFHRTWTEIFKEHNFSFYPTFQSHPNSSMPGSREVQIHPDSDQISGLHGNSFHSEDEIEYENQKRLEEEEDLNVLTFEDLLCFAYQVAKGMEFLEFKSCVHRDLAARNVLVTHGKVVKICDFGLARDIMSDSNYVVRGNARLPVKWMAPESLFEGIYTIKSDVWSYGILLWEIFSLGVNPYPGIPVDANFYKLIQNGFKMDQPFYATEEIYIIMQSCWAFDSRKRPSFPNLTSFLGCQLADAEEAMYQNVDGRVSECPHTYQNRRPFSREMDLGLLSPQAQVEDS
Experiment: Biochemical enzyme inhibition assay (microfluidics, Caliper EZ Reader II), FLT3
Conditions: for IC50: in vitro kinase assay, 60 min pre-incubation, ATP 190 µM, three independent experiments, read-out: FLT3 IC50 (nM) ± SD; for LE: ligand efficiency for FLT3 inhibition

Row | fold less inhibition on other closely related kinases versus FLT3 (enzymatic level) [fold] | IC50 [nM] | LE | fold less active than 13a on FLT3 (enzymatic FLT3 IC50 compared with 13a) | Structure (SMILES)
1 | > 100 | 13.9 | 0.28 |  | Cn1nc(C(C)(C)C)cc1NC(=O)Cc1ccc(Nc2cc(Nc3ccc(S(C)(=O)=O)cc3)ncn2)cc1 [13a, 2-(4-(6-(4-(Methylsulfonyl)phenylamino)pyrimidin-4-ylamino)phenyl)-N-(3-tert-butyl-1-methyl-1H-pyrazol-5-yl)acetamide]
2 |  | 63 | 0.27 | ~ 5 fold | CC(C)(C)c1cc(NC(=O)Cc2ccc(Nc3cc(Nc4ccc(S(C)(=O)=O)cc4)ncn3)cc2)no1 [13k, 2-(4-(6-(4-(Methylsulfonyl)phenylamino)pyrimidin-4-ylamino)phenyl)-N-(5-tert-butylisoxazol-3-yl)acetamide]
